In publication PMC7072624 (Biomolecules, 2020):

Columns and labels:
[1] = molecular target: T1, peroxisome proliferator-activated receptor γ (PPARγ) (Homo sapiens, UniProt P37231); test: ([…] Å); competitive TR-FRET binding assay
T1 construct: gene PPARG
T1 sequence (P37231 223-505): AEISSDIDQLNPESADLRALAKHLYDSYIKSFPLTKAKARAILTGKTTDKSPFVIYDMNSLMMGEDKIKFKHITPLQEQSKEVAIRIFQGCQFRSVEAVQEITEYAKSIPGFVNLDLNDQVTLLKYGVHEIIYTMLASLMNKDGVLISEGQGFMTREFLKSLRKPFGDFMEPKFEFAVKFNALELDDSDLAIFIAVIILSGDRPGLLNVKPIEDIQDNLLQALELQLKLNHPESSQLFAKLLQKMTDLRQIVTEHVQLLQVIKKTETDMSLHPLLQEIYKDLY

[2] = molecular target: T2, CDK5 (CDK5/p25) (Homo sapiens, UniProt Q00535); test: in vitro kinase inhibition assay; format: biochemical
T2 construct: with p25

[3] = molecular target: T3, PPARγ (Homo sapiens, UniProt P37231); test: competitive TR-FRET binding assay (Lanthascreen)
T3 construct: gene PPARG
T3 sequence (P37231 1-505): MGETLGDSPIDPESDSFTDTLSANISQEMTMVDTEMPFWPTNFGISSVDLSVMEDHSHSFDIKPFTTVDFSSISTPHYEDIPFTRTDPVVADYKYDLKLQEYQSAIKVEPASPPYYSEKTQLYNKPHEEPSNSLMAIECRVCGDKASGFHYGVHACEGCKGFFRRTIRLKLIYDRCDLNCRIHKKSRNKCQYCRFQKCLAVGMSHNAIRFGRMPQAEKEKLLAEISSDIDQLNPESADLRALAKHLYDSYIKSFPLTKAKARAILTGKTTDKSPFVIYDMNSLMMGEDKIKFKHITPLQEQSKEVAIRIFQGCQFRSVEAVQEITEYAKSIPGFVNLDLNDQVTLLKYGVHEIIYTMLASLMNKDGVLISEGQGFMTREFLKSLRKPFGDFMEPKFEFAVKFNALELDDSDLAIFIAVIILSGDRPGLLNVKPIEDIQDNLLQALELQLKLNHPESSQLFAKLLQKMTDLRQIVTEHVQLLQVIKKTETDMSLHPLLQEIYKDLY

T2 sequence (Q00535 whole entry): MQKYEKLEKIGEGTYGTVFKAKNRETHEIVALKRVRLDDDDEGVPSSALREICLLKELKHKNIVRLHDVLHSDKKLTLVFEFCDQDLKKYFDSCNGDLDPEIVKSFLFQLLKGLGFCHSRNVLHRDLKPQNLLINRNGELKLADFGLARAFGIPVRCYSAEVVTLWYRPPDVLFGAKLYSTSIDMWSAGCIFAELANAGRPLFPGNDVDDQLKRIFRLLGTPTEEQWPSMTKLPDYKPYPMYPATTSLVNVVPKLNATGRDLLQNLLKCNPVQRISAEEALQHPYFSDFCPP
T2 sequence (Q15078 2-307 partner): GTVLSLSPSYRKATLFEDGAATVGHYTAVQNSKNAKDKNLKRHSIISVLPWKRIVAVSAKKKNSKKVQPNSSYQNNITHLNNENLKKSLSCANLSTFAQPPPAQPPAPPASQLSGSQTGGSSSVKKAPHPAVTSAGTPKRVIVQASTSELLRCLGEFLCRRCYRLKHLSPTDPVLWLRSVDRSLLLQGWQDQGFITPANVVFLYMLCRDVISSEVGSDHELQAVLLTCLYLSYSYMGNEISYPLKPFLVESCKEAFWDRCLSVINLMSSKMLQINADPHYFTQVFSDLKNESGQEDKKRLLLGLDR

SMILES | Ki [1] [nM] | IC50 [2] [nM] | Ki [3] [nM]
COC(=O)[C@]1(Cc2ccc(O)c(CC=C(C)C)c2)OC(=O)C(O)=C1c1ccc(O)cc1 [butyrolactone I] | 2640 | 170 | 
COc1ccc(Cl)cc1C(=O)NCCc1ccc(S(=O)(=O)NC(=O)NC2CCCCC2)cc1 [glibenclamide] |  |  | 1180
